According to patent US20080293664A1, “Non-nucleoside reverse transcriptase inhibitors” (Roche Palo Alto LLC, priority 2007, published 2008):
Where a name gives a salt, the structure may show the parent alone. Read-outs that look alike come from different tables or passages of the source.

Assays:
[1] = molecular target: HIV-1 Reverse Transcriptase (Human immunodeficiency virus type 1 group M subtype B, UniProt P03366); assay: HIV-1 Reverse Transcriptase Assay (RNA-dependent DNA polymerase activity, SPA); assay type: biochemical; details: HIV-RT enzyme 1-3 nM, 30° C. for 30 min, 10% DMSO
Procedure: HIV-1 Reverse Transcriptase Assay
RNA-dependent DNA polymerase activity was measured using a biotinylated primer oligonucleotide and tritiated dNTP substrate. Newly synthesized DNA was quantified by capturing the biotinylated primer molecules on streptavidin coated Scintillation Proximity Assay (SPA) beads (Amersham). The sequences of the polymerase assay substrate were: 18nt DNA primer, 5′-Biotin/GTC CCT GTT CGG GCG CCA-3′; 47nt RNA template, 5′-GGGUCUCUCUGGUUAGACCACUCUAGCAGUGGCGCCCGAACAGGGAC-3′. The biotinylated DNA primer was obtained from the Integrated DNA Technologies Inc. and the RNA template was synthesized by Dharmacon. The DNA polymerase assay (final volume 50 μl) contained 32 nM biotinylated DNA primer, 64 nM RNA substrate, dGTP, dCTP, dTTP (each at 5 μM), 103 nM [^3H]-dATP (specific activity=[…]), in 45 mM Tris-HCl, pH 8.0, 45 mM NaCl, 2.7 mM Mg(CH3COO)2, 0.045% Triton X-100 w/v, 0.9 mM EDTA. The reactions contained 5 ul of serial compound dilutions in 100% DMSO for IC50 determination and the final concentrations of DMSO were 10%. Reactions were initiated by the addition of 30 μl of the HIV-RT enzyme (final concentrations of 1-3 nM). Protein concentrations were adjusted to provide linear product formation for at least 30 min of incubation. […] The beads were left to settle overnight and the SPA signals were counted in a 96-well top counter-NXT (Packard). […]

[2] = test system: HXB2-strain of HIV in MT4 cells; assay: Antiviral assay: protection of HIV-infected MT4 cells from cell death (MTT); assay type: cell-based; details: read-out: Antiviral Assay IC50
Procedure: Antiviral Assay Method Anti-HIV antiviral activity was assessed using an adaptation of the method of Pawls et al. (J. Virol Methods 1988 20:309-321). The method is based on the ability of compounds to protect HIV-infected T lymphoblastoid cells (MT4 cells) from cell-death mediated by the infection. The endpoint of the assay was calculated as the concentration of compound at which the cell viability of the culture was preserved by 50% (‘50% inhibitory concentration’, IC50). The cell viability of a culture was determined by the uptake of soluble, yellow 3-[4,5-dimethylthiazol-2-yl]-2,5-diphenyltetrazolium bromide (MTT) and its reduction to a purple insoluble formazan salt. After solubilization, spectrophotometric methods were employed to measure the amount of formazan product. MT4 cells were prepared to be in logarithmic-phase growth and a total of 2×10^6 cells infected with the HXB2-strain of HIV at a multiplicity of 0.0001 infectious units of virus per cell in a total volume of between 200-500 microliters. […] When the formazan deposit was fully solubilized by further mixing, the absorbance (OD) of the cultures was measured at 540 nm and 690 nm wavelength (690 nm readings were used as blanks for artifacts between wells). The percent protection for each treated culture was then calculated from the equation: [formula] […]

N#Cc1cc(Cl)cc(C(=O)c2cc(Cl)ccc2OCc2n[nH]c3ncccc23)c1 [Compound I-2, 3-Chloro-5-[5-chloro-2-(1H-pyrazolo[3,4-b]pyridin-3-ylmethoxy)-benzoyl]-benzonitrile]
IC50 [1]: 24.4 nM | IC50 ([2]; Human immunodeficiency virus 1, 120 h, MT4 cells infected with HXB2-strain of HIV, 5 days, MTT viability): 3.7 nM | melting point: 194.3 to 195.9 °C

N#Cc1cc(Cl)cc(Oc2c(Cl)ccc(OCc3n[nH]c4ncccc34)c2F)c1 [Compound I-3, 3-Chloro-5-[6-chloro-2-fluoro-3-(1H-pyrazolo[3,4-b]pyridin-3-ylmethoxy)-phenoxy]-benzonitrile, trifluoroacetate salt]
IC50 [1]: 11 nM | IC50 ([2]; Human immunodeficiency virus 1, HXB2, MT4, 120 h): 8 nM

N#Cc1cc(Cl)cc(C(=O)c2c(CNc3n[nH]c4ncccc34)ccc(Br)c2F)c1 [Compound I-9]
melting point: 214 to 215 °C
